Values quoted from earlier work as cited in US20050048543A1 (priority 2003, published 2005).

Legend:
[1] = test system: patients with mild to moderate AD; details: galantamine therapy in patients

Nc1c2c(nc3ccccc13)CCCC2 [tacrine]
response to treatment in presence of the ApoE4 polymorphism (AD patients): reduced response to treatment

COc1ccc2c3c1O[C@H]1C[C@@H](O)C=C[C@@]31CCN(C)C2 [galantamine]
most common side effects [1]: nausea, vomiting, diarrhea, dizziness and anorexia
